The term EC50 denotes the concentration needed to bring the measured effect to its halfway point. By Ki is commonly meant a measure of affinity in units of concentration, obtained from inhibition or displacement.

Entries after “also recorded” stand apart in the source; their conditions may differ.

Here are results for two compounds from patent US8222236B2, “2-methylene-(20E)-20(22)-dehydro-19-nor-vitamin D analogs” (Wisconsin Alumni Research Foundation, priority 2008, dated 2012).

One assay deals with HL-60 cells. Nature of the assay: HL-60 cell differentiation (nitro blue tetrazolium reduction). The note with it: FIG. 2; for EC50: HL-60 cells, 4 days. Type of assay: cell-based, human. The protocol: The study drugs were dissolved in ethanol and the concentrations determined using UV spectrophotometry. Serial dilutions were prepared so that a range of drug concentrations could be tested without changing the final concentration of ethanol (≦0.2%) present in the cell cultures.
Human promyelocytic leukemia (HL60) cells were grown in RPMI-1640 medium containing 10% fetal bovine serum. The cells were incubated at 37° C. in the presence of 5% CO2.
HL60 cells were plated at 1.2×10^5 cells/ml. Eighteen hours after plating, cells in duplicate were treated with drug. Four days later, the cells were harvested and a nitro blue tetrazolium reduction assay was performed (Collins et al., 1979; J. Exp. Med. 149:969-974). The percentage of differentiated cells was determined by counting a total of 200 cells and recording the number that contained intracellular black-blue formazan deposits. Verification of differentiation to monocytic cells was determined by measuring phagocytic activity (data not shown).

Assay [1] deals with bone calcium mobilization. As to the kind of experiment: Bone calcium mobilization (serum calcium) in vitamin D-deficient rats. The class given is in vivo, rat. The note with it: 0.02% Ca diet, FIG. 4. On the procedure:
(§1) Male, weanling Sprague-Dawley rats were placed on Diet 11 (0.47% Ca) diet +AEK oil for one week followed by Diet 11 (0.02% Ca) +AEK oil for 3 weeks. The rats were then switched to a diet containing 0.47% Ca for one week followed by two weeks on a diet containing 0.02% Ca. Dose administration began during the last week on 0.02% calcium diet. Four consecutive ip doses were given approximately 24 hours apart. Twenty-four hours after the last dose, blood was collected from the severed neck and the concentration of serum calcium determined as a measure of bone calcium mobilization. The first 10 cm of the intestine was also collected for intestinal calcium transport analysis using the everted gut sac method.

For assay [2], the system named is intestinal calcium transport. As to the kind of experiment: Intestinal calcium transport, everted gut sac method, vitamin D-deficient rats. Type of assay: in vivo, rat. Conditions: FIG. 5; for intestinal calcium transport at 260 pmol/day, in words: ip, 4 consecutive days. The protocol: as §1
Assay [3] has as its system 24-hydroxylase (24Ohase) gene promoter. Nature of the assay: In vitro transcription assay, 24-hydroxylase gene promoter luciferase reporter in ROS 17/2.8 (bone) cells. The class given is cell-based. Conditions: ROS 17/2.8 cells, 24-hydroxylase promoter-luciferase, 16 hours; FIG. 3; read-out: EC50, transcriptional activity in bone cells. The protocol: Transcription activity was measured in ROS 17/2.8 (bone) cells that were stably transfected with a 24-hydroxylase (24Ohase) gene promoter upstream of a luciferase reporter gene (Arbour et al., 1998). Cells were given a range of doses. Sixteen hours after dosing the cells were harvested and luciferase activities were measured using a luminometer.
RLU=relative luciferase units.

Assay [4] addresses T1, full-length recombinant rat vitamin D receptor (Rattus norvegicus, UniProt P13053).
T1 construct: Full-length recombinant rat receptor was expressed in E. coli BL21 (DE3) Codon Plus RIL cells; histidine tag (C); made in house; host or cells: E. coli BL21 (DE3) Codon Plus RIL
T1 sequence (P13053 1-423): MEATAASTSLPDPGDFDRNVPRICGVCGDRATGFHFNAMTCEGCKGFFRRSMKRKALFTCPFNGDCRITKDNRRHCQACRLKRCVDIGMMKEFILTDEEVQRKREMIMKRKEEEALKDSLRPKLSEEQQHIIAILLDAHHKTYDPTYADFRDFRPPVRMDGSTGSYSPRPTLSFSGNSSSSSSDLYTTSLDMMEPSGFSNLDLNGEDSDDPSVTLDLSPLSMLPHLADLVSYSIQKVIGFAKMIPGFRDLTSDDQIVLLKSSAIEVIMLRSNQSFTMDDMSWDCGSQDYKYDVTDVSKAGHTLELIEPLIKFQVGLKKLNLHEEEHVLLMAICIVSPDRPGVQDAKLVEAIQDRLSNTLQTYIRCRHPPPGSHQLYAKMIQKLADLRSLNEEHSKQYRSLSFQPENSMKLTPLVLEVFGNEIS
Nature of the assay: Vitamin D receptor competitive binding with [3H]-1,25(OH)2D3. The note with it: FIG. 1. The protocol:
Full-length recombinant rat receptor was expressed in E. coli BL21 (DE3) Codon Plus RIL cells and purified to homogeneity using two different column chromatography systems. The first system was a nickel affinity resin that utilizes the C-terminal histidine tag on this protein. The protein that was eluted from this resin was further purified using ion exchange chromatography (S-Sepharose Fast Flow). Aliquots of the purified protein were quick frozen in liquid nitrogen and stored at −80° C. until use. For use in binding assays, the protein was diluted in TEDK50 (50 mM Tris, 1.5 mM EDTA, pH7.4, 5 mM DTT, 150 mM KCl) with 0.1% Chaps detergent. The receptor protein and ligand concentration were optimized such that no more than 20% of the added radiolabeled ligand was bound to the receptor.
Radiolabeled and unlabeled ligands were added to 100 mcl of the diluted protein at a final ethanol concentration of ≦10%, mixed and incubated overnight on ice to reach binding equilibrium. The following day, 100 mcl of hydroxylapatite slurry (50%) was added to each tube and mixed at 10-minute intervals for 30 minutes. The hydroxylapaptite was collected by centrifugation and then washed three times with Tris-EDTA buffer (50 mM Tris, 1.5 mM EDTA, pH 7.4) containing 0.5% Titron X-100. […] Total binding was determined from the tubes containing only radiolabeled ligand.

In the case of `C=C1/C(=C\C=C2/CCC[C@]3(C)[C@@H]([C@H](C)CCCC(C)(C)O)CC[C@@H]23)C[C@@H](O)C[C@@H]1O` [1,25(OH)2D3, 1α,25-dihydroxyvitamin D3, reference compound], in the assay with HL-60 cells, the EC50 stood at 2 nM. In addition, the “bone calcium mobilization activity (serum calcium), in words” value in assay [1] is on record as “increased serum calcium levels at all dosages”. Further, the “dose giving the same mobilization of bone calcium” value in assay [1] (ip, 4 consecutive days) turned out to be 87 pmol/day. The “intestinal calcium transport at 260 pmol/day, in words” value in assay [2] is listed as “significant increase”.
For the compound `C=C1[C@H](O)CC(=C/C=C2\CCC[C@]3(C)[C@@H](/C(C)=C/CCC(C)(C)O)CC[C@@H]23)C[C@H]1O` [Vit III 20-22E, 2-methylene-(20E)-20(22)-dehydro-19-nor-1α,25-dihydroxyvitamin D3], the EC50 in assay [3] was 0.02 nM. Besides, the “potency on HL-60 cell differentiation relative to 1,25(OH)2D3” value in the assay on HL-60 cells lay in the range of 3 to 4 times. This compound also returned an EC50 with HL-60 cells (Homo sapiens, 96 h) of 0.8 nM. Moreover, the “bone calcium mobilization activity (serum calcium), in words” value in assay [1] is on record as “less bone calcium mobilization activity; also recorded: relatively low, or little, activity in mobilizing calcium from bone”. In addition, in assay [1] (ip, 4 consecutive days), the “dose at which any substantial effect on bone calcium mobilization was seen” value amounted to 7020 pmol/day and the “dose giving the same mobilization of bone calcium” value came to 780 pmol/day. The “VDR binding affinity compared to 1,25(OH)2D3” value in assay [4] is “bound with the same affinity”. In addition, in assay [4] (full-length recombinant rat VDR, read-out: Ki, competition with [3H]-1,25(OH)2D3 for binding to the vitamin D receptor), the Ki came out at 0.1 nM. The “intestinal calcium transport at 260 pmol/day, in words” value in assay [2] was “promotes intestinal calcium transport”. In addition, in assay [2] (vitamin D-deficient rats), the “intestinal calcium transport activity, in words” value is “about the same activity; also recorded: about the same as or equal to 1,25(OH)2D3”.
